# Test results as given in PMC10604323, “Cannabidiol Modulates M-Type K^+ and Hyperpolarization-Activated Cation Currents” (Biomedicines, 2023).
# How the values were obtained:
# [1] = test system: T1, M-type K+ current (IK(M)) of GH3 cells; KV7.2, KV7.3 and KV7.5 channels; experiment: whole-cell patch clamp; format: cell-based; conditions: high-K+ Ca2+-free solution with 1 μM TTX, 1 s step from -50 to -10 mV, pH 7.4, 20-25 °C, native current
# T1 construct: gene Kcnq2; native channels in GH3 cells; subunit composition not determined
# Text: whole-cell patch clamp on M-type K+ current (IK(M)) of GH3 cells; KV7.2, KV7.3 and KV7.5 channels | concentration–response curve for the CBD-induced inhibition of the density of IK(M)
# [2] = test system: T2, hyperpolarization-activated cation current (Ih) of GH3 cells; HCN2, HCN3, and a combination of HCN2 and HCN3; experiment: whole-cell patch clamp; format: cell-based; conditions: Ca2+-free Tyrode's solution with 0.5 mM CdCl2 and 1 μM TTX, 2 s step from -40 to -110 mV, pH 7.4, 20-25 °C, native current
# T2 construct: native channels in GH3 cells; subunit composition not determined
smiles,measurement,setting,value
"C=C(C)[C@@H]1CCC(C)=C[C@H]1c1c(O)cc(CCCCC)cc1O [Cannabidiol, 2-[(1R,6R)-3-methyl-6-(prop-1-en-2-yl)cyclohex-2-en-1-yl]-5-pentylbenzene-1,3-diol]",IC50,[1],3.6 µM
same,IC50,[2],3.3 µM
